Article PMC9168271, “Discovery of Novel Tetrahydro-β-carboline Containing Aminopeptidase N Inhibitors as Cancer Chemosensitizers” (Frontiers in Oncology, 2022)
Like-named read-outs stand apart in the source and are kept apart here.

Molecular target: Aminopeptidase N (APN, CD13) (Homo sapiens, UniProt P15144)
Assay: APN enzyme inhibitory assay, supernatant of K562-CD13 cells as enzyme source, L-leucine-p-nitro anilide substrate;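 note: substrate L-leucine-p-nitro anilide used at 1.6 mM, with enzyme from sonicated APN-overexpressing K562 cell lysate supernatant, run in 96-well plates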
Details: for inhibition at 30 µM: read-out: Inhibitory rate (%)
Protocol: In the enzyme inhibitory assay, K562-CD13 monoclonal cells were used as APN enzyme source as described in our previous work ([27]).
K562 cells with overexpression of APN were added into PBS for ultrasonic crushing, centrifuged for 10 minutes, and supernatant was taken as enzyme source and added into 96-well plate. Different concentrations of compounds were added subsequently, and 1.6 mM L-leucine-p-nitro anilide was used as substrate. After 30 minutes of reaction, the APN enzyme activity was measured at 405 nm absorbance. The inhibition rate of APN activity was analyzed by the formula (Od control OD tested)/Od control 100%.

Sequence of Aminopeptidase N (APN, CD13) (P15144 whole entry): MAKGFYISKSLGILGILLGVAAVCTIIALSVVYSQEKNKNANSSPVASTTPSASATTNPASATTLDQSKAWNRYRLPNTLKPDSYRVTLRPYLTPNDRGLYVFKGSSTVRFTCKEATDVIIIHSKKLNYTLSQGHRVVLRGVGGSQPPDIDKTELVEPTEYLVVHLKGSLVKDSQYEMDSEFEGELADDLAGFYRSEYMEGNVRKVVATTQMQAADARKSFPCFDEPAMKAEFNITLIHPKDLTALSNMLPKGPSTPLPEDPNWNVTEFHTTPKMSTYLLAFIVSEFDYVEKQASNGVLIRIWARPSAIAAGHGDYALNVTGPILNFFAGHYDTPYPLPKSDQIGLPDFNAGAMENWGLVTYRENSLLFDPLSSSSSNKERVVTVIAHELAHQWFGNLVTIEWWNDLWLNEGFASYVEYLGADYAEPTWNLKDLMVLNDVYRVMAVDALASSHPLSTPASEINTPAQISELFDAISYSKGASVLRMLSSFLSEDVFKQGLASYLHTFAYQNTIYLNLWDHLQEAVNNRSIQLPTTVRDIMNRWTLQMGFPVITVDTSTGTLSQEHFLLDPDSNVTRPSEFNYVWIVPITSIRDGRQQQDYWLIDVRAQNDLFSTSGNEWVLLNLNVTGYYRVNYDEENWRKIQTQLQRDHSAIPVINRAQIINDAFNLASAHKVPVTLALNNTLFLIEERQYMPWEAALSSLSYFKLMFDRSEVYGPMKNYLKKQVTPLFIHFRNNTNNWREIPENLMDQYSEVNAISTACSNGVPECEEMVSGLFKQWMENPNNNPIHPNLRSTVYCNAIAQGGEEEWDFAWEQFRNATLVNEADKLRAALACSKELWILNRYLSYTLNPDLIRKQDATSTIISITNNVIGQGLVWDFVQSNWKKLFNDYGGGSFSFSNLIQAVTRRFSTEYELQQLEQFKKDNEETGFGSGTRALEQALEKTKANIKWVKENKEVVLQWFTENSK

inhibition at 30 µM [%]	SMILES	further results
13.2 ± 0.4	O=C(NO)c1ccc(Cn2c3c(c4ccccc42)CCN(C(=O)c2cccc(F)c2)C3)cc1 [Compound D13, 4-((2-(3-fluorobenzoyl)-1,2,3,4-tetrahydro-9H-pyrido[3,4-b]indol-9-yl)methyl)-N-hydroxybenzamide]	–
74.4 ± 6.42	O=C(Cn1c2c(c3ccccc31)CCN(C(=O)c1ccccc1)C2)NO [Compound D3, 2-(2-benzoyl-1,2,3,4-tetrahydro-9H-pyrido[3,4-b]indol-9-yl)-N-hydroxyacetamide]	IC50: 6.24 ± 0.43 µM
71.3 ± 4.25	O=C(Cn1c2c(c3ccccc31)CCN(C(=O)c1cc(F)cc(F)c1)C2)NO [Compound D24, 2-(2-(3,5-difluorobenzoyl)-1,2,3,4-tetrahydro-9H-pyrido[3,4-b]indol-9-yl)-N-hydroxyacetamide]	IC50: 7.13 ± 0.13 µM
53.1 ± 7.31	CCCc1ccc(C(=O)N2CCc3c(n(CC(=O)NO)c4ccccc34)C2)cc1 [Compound D26, N-hydroxy-2-(2-(4-propylbenzoyl)-1,2,3,4-tetrahydro-9H-pyrido[3,4-b]indol-9-yl)acetamide]	–
62.9 ± 8.72	O=C(Cn1c2c(c3ccccc31)CCN(C(=O)c1ccccc1C(F)(F)F)C2)NO [Compound D5, N-hydroxy-2-(2-(2-(trifluoromethyl)benzoyl)-1,2,3,4-tetrahydro-9H-pyrido[3,4-b]indol-9-yl)acetamide]	IC50: 14.9 ± 1.03 µM
78 ± 3.95	O=C(Cn1c2c(c3ccccc31)CCN(C(=O)c1cc(F)ccc1F)C2)NO [Compound D28, 2-(2-(2,5-difluorobenzoyl)-1,2,3,4-tetrahydro-9H-pyrido[3,4-b]indol-9-yl)-N-hydroxyacetamide]	IC50: 4.85 ± 0.55 µM
53.2 ± 2.08	CCc1ccc(C(=O)N2CCc3c(n(CC(=O)NO)c4ccccc34)C2)cc1 [Compound D18, 2-(2-(4-ethylbenzoyl)-1,2,3,4-tetrahydro-9H-pyrido[3,4-b]indol-9-yl)-N-hydroxyacetamide]	–
78.2 ± 5.43	O=C(Cn1c2c(c3ccccc31)CCN(C(=O)c1cccc(Br)c1)C2)NO [Compound D21, 2-(2-(3-bromobenzoyl)-1,2,3,4-tetrahydro-9H-pyrido[3,4-b]indol-9-yl)-N-hydroxyacetamide]	IC50: 7.82 ± 1.05 µM
35 ± 1.51	O=C(Cn1c2c(c3ccccc31)CCN(C(=O)c1ccc(C(F)(F)F)cc1)C2)NO [Compound D1, N-hydroxy-2-(2-(4-(trifluoromethyl)benzoyl)-1,2,3,4-tetrahydro-9H-pyrido[3,4-b]indol-9-yl)acetamide]	–
27.9 ± 5.85	O=C(NO)c1ccc(Cn2c3c(c4ccccc42)CCN(C(=O)c2cc(F)cc(F)c2)C3)cc1 [Compound D25, 4-((2-(3,5-difluorobenzoyl)-1,2,3,4-tetrahydro-9H-pyrido[3,4-b]indol-9-yl)methyl)-N-hydroxybenzamide]	–
60 ± 4.95	O=C(Cn1c2c(c3ccccc31)CCN(C(=O)c1c(F)cccc1Cl)C2)NO [Compound D29, 2-(2-(2-chloro-6-fluorobenzoyl)-1,2,3,4-tetrahydro-9H-pyrido[3,4-b]indol-9-yl)-N-hydroxyacetamide]	IC50: 9.23 ± 0.67 µM
42.5 ± 1.42	O=C(Cn1c2c(c3ccccc31)CCN(C(=O)c1ccc(F)cc1)C2)NO [Compound D10, 2-(2-(4-fluorobenzoyl)-1,2,3,4-tetrahydro-9H-pyrido[3,4-b]indol-9-yl)-N-hydroxyacetamide]	–

Continued, compound first:

SMILES	inhibition at 30 µM [%]	further results
O=C(NO)c1ccc(Cn2c3c(c4ccccc42)CCN(C(=O)c2ccccc2Cl)C3)cc1 [Compound D20, 4-((2-(2-chlorobenzoyl)-1,2,3,4-tetrahydro-9H-pyrido[3,4-b]indol-9-yl)methyl)-N-hydroxybenzamide]	19.1 ± 4.17	–
O=C(NO)c1ccc(Cn2c3c(c4ccccc42)CCN(C(=O)c2ccc(C(F)(F)F)cc2)C3)cc1 [Compound D2, N-hydroxy-4-((2-(4-(trifluoromethyl)benzoyl)-1,2,3,4-tetrahydro-9H-pyrido[3,4-b]indol-9-yl)methyl)benzamide]	13.3 ± 3.25	–
O=C(NO)c1ccc(Cn2c3c(c4ccccc42)CCN(C(=O)c2cccc(Br)c2)C3)cc1 [Compound D22, 4-((2-(3-bromobenzoyl)-1,2,3,4-tetrahydro-9H-pyrido[3,4-b]indol-9-yl)methyl)-N-hydroxybenzamide]	19.2 ± 3.7	–
Cc1ccccc1C(=O)N1CCc2c(n(Cc3ccc(C(=O)NO)cc3)c3ccccc23)C1 [Compound D17, N-hydroxy-4-((2-(2-methylbenzoyl)-1,2,3,4-tetrahydro-9H-pyrido[3,4-b]indol-9-yl)methyl)benzamide]	23.6 ± 4.51	–
O=C(NO)c1ccc(Cn2c3c(c4ccccc42)CCN(C(=O)c2ccccc2F)C3)cc1 [Compound D15, 4-((2-(2-fluorobenzoyl)-1,2,3,4-tetrahydro-9H-pyrido[3,4-b]indol-9-yl)methyl)-N-hydroxybenzamide]	28.7 ± 2.75	–
O=C(NO)c1ccc(Cn2c3c(c4ccccc42)CCN(C(=O)c2ccccc2)C3)cc1 [Compound D4, 4-((2-benzoyl-1,2,3,4-tetrahydro-9H-pyrido[3,4-b]indol-9-yl)methyl)-N-hydroxybenzamide]	19.4 ± 4.53	–
O=C(NO)c1ccc(Cn2c3c(c4ccccc42)CCN(C(=O)c2ccc(F)cc2F)C3)cc1 [Compound D23, 4-((2-(2,4-difluorobenzoyl)-1,2,3,4-tetrahydro-9H-pyrido[3,4-b]indol-9-yl)methyl)-N-hydroxybenzamide]	65 ± 5.97	–
CCc1ccc(C(=O)N2CCc3c(n(Cc4ccc(C(=O)NO)cc4)c4ccccc34)C2)cc1 [Compound D19, 4-((2-(4-ethylbenzoyl)-1,2,3,4-tetrahydro-9H-pyrido[3,4-b]indol-9-yl)methyl)-N-hydroxybenzamide]	19.5 ± 4.22	–
COc1ccc(C(=O)N2CCc3c(n(Cc4ccc(C(=O)NO)cc4)c4ccccc34)C2)cc1 [Compound D9, N-hydroxy-4-((2-(4-methoxybenzoyl)-1,2,3,4-tetrahydro-9H-pyrido[3,4-b]indol-9-yl)methyl)benzamide]	24 ± 0.25	–
COc1ccccc1C(=O)N1CCc2c(n(Cc3ccc(C(=O)NO)cc3)c3ccccc23)C1 [Compound D7, N-hydroxy-4-((2-(2-methoxybenzoyl)-1,2,3,4-tetrahydro-9H-pyrido[3,4-b]indol-9-yl)methyl)benzamide]	17.9 ± 0.84	–
CCCc1ccc(C(=O)N2CCc3c(n(Cc4ccc(C(=O)NO)cc4)c4ccccc34)C2)cc1 [Compound D27, N-hydroxy-4-((2-(4-propylbenzoyl)-1,2,3,4-tetrahydro-9H-pyrido[3,4-b]indol-9-yl)methyl)benzamide]	20.4 ± 5.78	–
O=C(NO)c1ccc(Cn2c3c(c4ccccc42)CCN(C(=O)c2ccccc2C(F)(F)F)C3)cc1 [Compound D6, N-hydroxy-4-((2-(2-(trifluoromethyl)benzoyl)-1,2,3,4-tetrahydro-9H-pyrido[3,4-b]indol-9-yl)methyl)benzamide]	15.3 ± 3.66	–
COc1ccccc1C(=O)N1CCc2c(n(CC(=O)NO)c3ccccc23)C1 [Compound D8, N-hydroxy-2-(2-(2-methoxybenzoyl)-1,2,3,4-tetrahydro-9H-pyrido[3,4-b]indol-9-yl) acetamide]	–	Inhibitory rate (%) (compound at 30 µM, mean of at least three experiments): 56.7±0.42%; IC50 (mean of at least three experiments): 25 ± 3.32 µM
O=C(NO)c1ccc(Cn2c3c(c4ccccc42)CCN(C(=O)c2ccc(F)cc2)C3)cc1 [Compound D11, 4-((2-(4-fluorobenzoyl)-1,2,3,4-tetrahydro-9H-pyrido[3,4-b]indol-9-yl)methyl)-N-hydroxybenzamide]	35 ± 4.57	–
